Data as given in US20230295166A1, “ATR INHIBITORS AND USES THEREOF” (ANTENGENE DISCOVERY LIMITED, priority 2020, published 2023).

Key:
ATR kinase = ATR kinase (Homo sapiens (Human), UniProt Q13535); test: ATR inhibition assay (mobility shift assay, phosphorylation of FAM-RAD17); format: biochemical; details: ATR kinase (Eurofins), substrate FAM-RAD17, mobility shift
Method: Assay 1: ATR Inhibition Assay
Detection of ATR kinase activity utilized the Mobility shift assay to measure the phosphorylation of the substrate protein FAM-RAD17 (GL, Cat. No. 514318, Lot. No. P19042-MJ524315). The assay was developed and conducted at Chempartner. All the test compounds were dissolved in 100% DMSO at concentration of 20 mM, then prepare compounds and conducted the assay as follows: • 1) Transfer 80 μl 20 mM compound to 40 μl of 100% DMSO in a 96-well plate. • 2) Serially dilute the compound by transferring 20 μl to 60 μl of 100% DMSO in the next well and so forth for a total of 10 concentrations. • 3) Add 100 μl of 100% DMSO to two empty wells for no compound control and no enzyme control in the same 96-well plate. Mark the plate as source plate. • 4) Transfer 40 μl of compound from source plate to a new 384-well plate as the intermediate plate. • 5) Transfer 60 nl compounds to assay plate by Echo. • 6) Add ATR kinase (Eurofins, Cat. No. 14-953, Lot. No. D14 JP007N) into Kinase base buffer (50 mM HEPES, pH 7.5; 0.0015% Brij-35; 0.01% Triton) to prepare 2× enzyme solution, then add 10 μl of 2× enzyme solution to each well of the 384-well assay plate, incubate at room temperature for 10 min. • 7) Add FAM-RAD17 and ATP (Sigma, Cat. No. A7699-1G, CAS No. 987-65-5) in the kinase base buffer to prepare 2×peptide solution, then add 10 μl to the assay plate. • 8) Incubate at 28° C. for specified period of time. Add 40 μl of stop buffer (100 mM HEPES, pH 7.5; 0.015% Brij-35; 0.2% Coating Reagent #3; 50 mM EDTA) to stop reaction. • 9) Collect data on Caliper. Convert conversion values to inhibition values.
Percent inhibition=(max−conversion)/(max−min)*100 wherein “max” stands for DMSO control; “min” stands for low control.
Fit the data in XLFit excel add-in version 5.4.0.8 to obtain IC50 values. Equation used is:
Y=Bottom+(Top−Bottom)/(1+(IC50/X)^HillSlope) wherein X means concentration in a format not transformed to logarithms.

LoVo (CCL-229) cells = test: Tumor cell anti-proliferation assay (CTG assay); format: cell-based; details: LoVo human colorectal cancer cells, 96 h, CellTiter-Glo
Method: Assay 2: Tumor Cell Anti-proliferation Assay (CTG Assay)
Human colorectal cancer cells HT-29 (HTB-38) and LoVo (CCL-229) were selected for the CTG assay, the two cell lines were originally obtained from the American Type Culture Collection (ATCC). FBS and appropriate additives were added into base medium to prepare complete medium, then the cell layer was briefly rinsed with 0.25% (w/v) Trypsin-0.038% (w/v) EDTA solution to remove all traces of serum that contains trypsin inhibitor. After that, appropriate volume of Trypsin-EDTA solution was added to flask and cells under an inverted microscope were observed until cell layer was dispersed. At last, appropriate volume of complete growth medium was added and cells were aspirated by gently pipetting. Numbers were collected and counted with Vi-cell XR and cell density was adjusted, cells were seeded into 96-well opaque-walled clear bottom tissue-culture treated plates in the CO2 incubator for 20-24 hours. All the test compounds were at 10 mM in DMSO. Compounds were then added to the cell media in 3-fold serial dilutions, the final DMSO concentration was 0.5%. Plates were incubated for 96 h at 5% CO2, 37° C. Before the measurement, the appropriate volume of CellTiter-Glo Buffer was transferred into the amber bottle containing CellTiter-Glo substrate to reconstitute the lyophilized enzyme/substrate mixture, mixed gently, thereby forming the CellTiter-Glo Reagent (Promega Cat. No. G7573). The plate and its contents were equilibrated to room temperature for approximately 30 minutes, then 100 μL of CellTiter-Glo Reagent was added to the assay plate, the contents were mixed for 2 minutes on an orbital shaker to induce cell lysis, incubated at room temperature for 10 minutes to stabilize luminescent signal. At last the clear bottom was pasted with white back seal and luminescence was recorded with Enspire. IC50 and GI50 values were calculated with XLFit curve fitting software using 4 Parameter Logistic Model Y=Bottom+(Top−Bottom)/(1+(IC50/X)^HillSlope).

Chain of ATR kinase (Q13535 whole entry): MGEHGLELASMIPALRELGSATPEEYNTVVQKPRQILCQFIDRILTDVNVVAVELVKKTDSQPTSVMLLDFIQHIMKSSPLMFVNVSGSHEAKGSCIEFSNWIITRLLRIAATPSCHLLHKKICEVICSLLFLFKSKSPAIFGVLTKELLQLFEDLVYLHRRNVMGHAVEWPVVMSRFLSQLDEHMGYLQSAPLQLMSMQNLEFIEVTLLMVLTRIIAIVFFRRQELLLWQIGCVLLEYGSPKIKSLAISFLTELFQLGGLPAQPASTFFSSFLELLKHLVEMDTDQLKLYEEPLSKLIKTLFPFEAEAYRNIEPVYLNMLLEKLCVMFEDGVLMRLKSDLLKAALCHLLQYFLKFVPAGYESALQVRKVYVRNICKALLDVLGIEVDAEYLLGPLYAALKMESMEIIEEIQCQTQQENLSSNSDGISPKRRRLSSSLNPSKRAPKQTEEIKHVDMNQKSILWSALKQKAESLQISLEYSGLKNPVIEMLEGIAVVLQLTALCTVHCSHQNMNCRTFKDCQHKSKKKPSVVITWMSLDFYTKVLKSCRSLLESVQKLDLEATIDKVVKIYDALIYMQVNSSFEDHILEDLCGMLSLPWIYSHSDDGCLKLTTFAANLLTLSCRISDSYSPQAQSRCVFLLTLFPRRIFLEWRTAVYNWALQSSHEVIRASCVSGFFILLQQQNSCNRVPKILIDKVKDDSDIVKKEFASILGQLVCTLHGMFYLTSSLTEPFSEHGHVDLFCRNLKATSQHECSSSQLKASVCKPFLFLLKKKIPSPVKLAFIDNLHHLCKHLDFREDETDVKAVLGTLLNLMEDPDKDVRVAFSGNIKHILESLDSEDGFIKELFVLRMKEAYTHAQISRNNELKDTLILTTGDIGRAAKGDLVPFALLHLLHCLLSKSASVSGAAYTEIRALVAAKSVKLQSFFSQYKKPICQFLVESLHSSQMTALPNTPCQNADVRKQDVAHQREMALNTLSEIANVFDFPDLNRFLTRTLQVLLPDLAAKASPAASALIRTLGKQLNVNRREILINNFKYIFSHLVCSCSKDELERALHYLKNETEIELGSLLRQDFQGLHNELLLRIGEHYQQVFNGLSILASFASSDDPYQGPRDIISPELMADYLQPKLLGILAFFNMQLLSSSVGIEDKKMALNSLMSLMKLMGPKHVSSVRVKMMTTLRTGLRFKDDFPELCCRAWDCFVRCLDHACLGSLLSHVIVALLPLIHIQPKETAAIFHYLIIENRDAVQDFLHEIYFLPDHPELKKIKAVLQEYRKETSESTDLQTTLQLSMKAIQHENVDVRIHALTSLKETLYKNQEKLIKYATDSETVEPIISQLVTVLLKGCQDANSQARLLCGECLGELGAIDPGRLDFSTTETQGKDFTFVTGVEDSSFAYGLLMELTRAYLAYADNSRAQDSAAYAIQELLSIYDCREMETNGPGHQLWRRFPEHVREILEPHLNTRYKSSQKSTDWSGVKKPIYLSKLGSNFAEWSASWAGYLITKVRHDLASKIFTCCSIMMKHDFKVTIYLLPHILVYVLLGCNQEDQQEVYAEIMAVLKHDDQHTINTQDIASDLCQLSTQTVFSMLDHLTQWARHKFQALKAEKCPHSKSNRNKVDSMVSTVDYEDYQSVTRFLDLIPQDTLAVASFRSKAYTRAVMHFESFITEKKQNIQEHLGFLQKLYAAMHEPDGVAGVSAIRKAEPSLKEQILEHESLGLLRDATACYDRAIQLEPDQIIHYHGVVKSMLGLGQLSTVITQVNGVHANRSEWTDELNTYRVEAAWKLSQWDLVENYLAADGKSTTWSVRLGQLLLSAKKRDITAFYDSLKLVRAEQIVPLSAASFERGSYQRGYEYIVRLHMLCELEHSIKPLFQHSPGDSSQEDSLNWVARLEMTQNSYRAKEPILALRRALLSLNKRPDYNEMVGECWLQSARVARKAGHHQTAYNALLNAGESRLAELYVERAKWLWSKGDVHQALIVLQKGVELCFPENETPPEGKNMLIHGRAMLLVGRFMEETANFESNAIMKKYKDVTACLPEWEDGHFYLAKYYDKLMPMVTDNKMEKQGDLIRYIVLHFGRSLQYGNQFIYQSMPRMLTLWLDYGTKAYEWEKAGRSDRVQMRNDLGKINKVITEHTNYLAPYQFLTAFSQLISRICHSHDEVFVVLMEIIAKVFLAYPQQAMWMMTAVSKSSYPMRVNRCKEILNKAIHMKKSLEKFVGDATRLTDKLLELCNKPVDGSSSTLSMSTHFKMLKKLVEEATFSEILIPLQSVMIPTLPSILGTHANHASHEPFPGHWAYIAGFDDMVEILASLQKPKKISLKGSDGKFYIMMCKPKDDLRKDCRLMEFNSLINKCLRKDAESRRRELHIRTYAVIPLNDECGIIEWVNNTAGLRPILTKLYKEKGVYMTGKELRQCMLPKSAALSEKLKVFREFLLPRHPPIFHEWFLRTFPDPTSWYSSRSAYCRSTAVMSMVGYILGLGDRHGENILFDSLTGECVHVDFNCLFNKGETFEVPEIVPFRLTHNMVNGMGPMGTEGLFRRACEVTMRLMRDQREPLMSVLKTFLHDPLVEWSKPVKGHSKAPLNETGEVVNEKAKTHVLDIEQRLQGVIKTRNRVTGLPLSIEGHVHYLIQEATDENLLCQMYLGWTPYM
Chain of ATR kinase (Q8WXE1 whole entry partner): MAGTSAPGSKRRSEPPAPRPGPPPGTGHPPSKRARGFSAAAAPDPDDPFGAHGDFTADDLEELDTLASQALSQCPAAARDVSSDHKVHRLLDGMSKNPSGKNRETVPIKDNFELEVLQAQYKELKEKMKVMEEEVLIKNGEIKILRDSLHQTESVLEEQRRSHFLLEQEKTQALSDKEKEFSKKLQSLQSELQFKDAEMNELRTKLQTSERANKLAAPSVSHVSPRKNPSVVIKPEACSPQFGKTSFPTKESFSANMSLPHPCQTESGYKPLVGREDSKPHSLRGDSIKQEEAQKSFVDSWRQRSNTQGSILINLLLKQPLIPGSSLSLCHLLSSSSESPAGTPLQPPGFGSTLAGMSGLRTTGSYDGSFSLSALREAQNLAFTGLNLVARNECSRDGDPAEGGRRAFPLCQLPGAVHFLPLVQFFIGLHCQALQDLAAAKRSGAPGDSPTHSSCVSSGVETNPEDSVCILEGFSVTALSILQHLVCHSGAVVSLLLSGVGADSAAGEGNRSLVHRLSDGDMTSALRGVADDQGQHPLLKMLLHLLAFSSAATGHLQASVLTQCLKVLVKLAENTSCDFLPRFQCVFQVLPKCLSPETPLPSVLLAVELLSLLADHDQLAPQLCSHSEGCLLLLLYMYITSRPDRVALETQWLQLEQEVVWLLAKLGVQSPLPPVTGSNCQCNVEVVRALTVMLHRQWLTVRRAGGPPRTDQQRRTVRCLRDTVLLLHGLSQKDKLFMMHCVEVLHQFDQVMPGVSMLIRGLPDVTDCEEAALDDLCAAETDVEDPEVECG

Compound	IC50 (ATR kinase)	IC50 (LoVo (CCL-229) cells)
Cc1cn[nH]c1-c1cnn2c(C3(S(C)(=O)=O)CC3)cc(N3CCOC[C@H]3C)nc12 [Example 14, (R)-3-methyl-4-(3-(4-methyl-1H-pyrazol-5-yl)-7-(1-(methylsulfonyl)cyclopropyl)pyrazolo[1,5-a]pyrimidin-5-yl)morpholine]	> 500 nM	
C[C@@H]1COCCN1c1cc(C2([S@](C)(=N)=O)CC2)n2ncc(-c3ccn[nH]3)c2n1 [Example 7a, (R)-imino(methyl)(1-(5-((R)-3-methylmorpholino)-3-(1H-pyrazol-5-yl)pyrazolo[1,5-a]pyrimidin-7-yl)cyclopropyl)-λ6-sulfanone]	< 100 nM	
C[C@@H]1COCCN1c1cc(-c2ccn[nH]2)n2ncc(-c3ccn[nH]3)c2n1 [Example 10, (R)-4-(3,7-di(1H-pyrazol-5-yl)pyrazolo[1,5-a]pyrimidin-5-yl)-3-methylmorpholine]	< 100 nM	
C[C@@H]1COCCN1c1cc(-c2ccnn2C)n2ncc(-c3cn[nH]c3)c2n1 [Example 2, (R)-3-methyl-4-(7-(1-methyl-1H-pyrazol-5-yl)-3-(1H-pyrazol-4-yl)pyrazolo [1,5-a]pyrimidin-5-yl)morpholine]	> 500 nM	
C[C@@H]1COCCN1c1cc(C2(S(C)(=O)=O)CC2)n2ncc(-c3cc[nH]c3)c2n1 [Example 9, (R)-3-methyl-4-(7-(1-(methylsulfonyl)cyclopropyl)-3-(1H-pyrrol-3-yl)pyrazolo[1,5-a]pyrimidin-5-yl)morpholine]	< 100 nM	
C[C@@H]1COCCN1c1cc(-c2ccnn2C)n2ncc(-c3cccnc3)c2n1 [Example 3, (R)-3-methyl-4-(7-(1-methyl-1H-pyrazol-5-yl)-3-(pyridin-3-yl)pyrazolo[1,5-a]pyrimidin-5-yl)morpholine]	100 to 500 nM	
C[C@@H]1COCCN1c1cc(C2(S(C)(=O)=O)CC2)n2ncc(-c3ccc[nH]3)c2n1 [Example 8, (R)-3-methyl-4-(7-(1-(methylsulfonyl)cyclopropyl)-3-(1H-pyrrol-2-yl)pyrazolo[1,5-a]pyrimidin-5-yl)morpholine]	< 100 nM	
C[C@@H]1COCCN1c1cc(-c2ccnn2C)c2ncc(-c3ccn[nH]3)n2n1 [Example 21, (R)-3-methyl-4-(8-(1-methyl-1H-pyrazol-5-yl)-3-(1H-pyrazol-5-yl)imidazo[1,2-b]pyridazin-6-yl)morpholine]	< 100 nM	
C[C@@H]1COCCN1c1cc(C2([S@@](C)(=N)=O)CC2)n2ncc(-c3ccn[nH]3)c2n1 [Example 7b, (S)-imino(methyl)(1-(5-((R)-3-methylmorpholino)-3-(1H-pyrazol-5-yl)pyrazolo[1,5-a]pyrimidin-7-yl)cyclopropyl)-λ6-sulfanone]	< 100 nM	
Cc1cc(-c2cnc3c(-c4ccnn4C)cc(N4CCOC[C@H]4C)nn23)[nH]n1 [Example 23, (R)-3-methyl-4-(8-(1-methyl-1H-pyrazol-5-yl)-3-(3-methyl-1H-pyrazol-5-yl)imidazo[1,2-b]pyridazin-6-yl)morpholine]		446 nM
C[C@@H]1COCCN1c1cc(C(C)(C)C#N)c2cnc(-c3ccn[nH]3)n2n1 [Example 40, (R)-2-methyl-2-(2-(3-methylmorpholino)-7-(1H-pyrazol-5-yl)imidazo[1,5-b]pyridazin-4-yl)propanenitrile]		23.8 nM
Cc1nc(-c2ccn[nH]2)n2nc(N3CC4CCC(C3)O4)cc(-c3ccnn3C)c12 [Example 65, 3-[5-methyl-4-(1-methyl-1H-pyrazol-5-yl)-7-(1H-pyrazol-5-yl)imidazo [1,5-b]pyridazin-2-yl]-8-oxa-3-azabicyclo[3.2.1]octane]		55.2 nM
Cc1cc(-c2nc(C)c3c(-c4ccnn4C)cc(N4CCOC[C@H]4C)nn23)[nH]n1 [Example 47, (R)-3-methyl-4-(5-methyl-4-(1-methyl-1H-pyrazol-5-yl)-7-(3-methyl-1H-pyrazol-5-yl)imidazo[1,5-b]pyridazin-2-yl)morpholine]		17.1 nM
Cc1cc(-c2nc(C)c3c(-c4ccnn4C)cc(N4CC5CCC(C4)O5)nn23)[nH]n1 [Example 66, 3-[5-methyl-4-(1-methyl-1H-pyrazol-5-yl)-7-(3-methyl-1H-pyrazol-5-yl)imidazo[1,5-b]pyridazin-2-yl]-8-oxa-3-azabicyclo[3.2.1]octane]		69 nM

Continued, values first:

IC50 (ATR kinase)	IC50 (LoVo (CCL-229) cells)	Compound
< 100 nM	152 nM	C[C@@H]1COCCN1c1cc(C2(S(C)(=O)=O)CC2)c2cnc(-c3ccn[nH]3)n2n1 [Example 30, (R)-3-methyl-4-(4-(1-(methylsulfonyl)cyclopropyl)-7-(1H-pyrazol-5-yl)imidazo[1,5-b]pyridazin-2-yl)morpholine]
< 100 nM	384 nM	Cc1cc(-c2cnn3c(-c4ccnn4C)cc(N4CCOC[C@H]4C)nc23)[nH]n1 [Example 18, (R)-3-methyl-4-(7-(1-methyl-1H-pyrazol-5-yl)-3-(3-methyl-1H-pyrazol-5-yl)pyrazolo[1,5-a]pyrimidin-5-yl)morpholine]
< 100 nM	17 nM	Cc1cc(-c2nsc3c(C4(S(C)(=O)=O)CC4)cc(N4CCOC[C@H]4C)nc23)[nH]n1 [Example 50, (R)-3-methyl-4-(3-(3-methyl-1H-pyrazol-5-yl)-7-(1-(methylsulfonyl)cyclopropyl)isothiazolo[4,5-b]pyridin-5-yl)morpholine]
< 100 nM		C[C@@H]1COCCN1c1cc(-c2ccnn2C)n2ncc(-c3ccc[nH]3)c2n1 [Example 4, (R)-3-methyl-4-(7-(1-methyl-1H-pyrazol-5-yl)-3-(1H-pyrrol-2-yl)pyrazolo[1,5-a]pyrimidin-5-yl)morpholine]
< 100 nM		CCP(=O)(CC)c1cc(N2CCOC[C@H]2C)nn2c(-c3ccn[nH]3)ncc12 [Example 39, (3R)-4-[4-(diethylphosphoryl)-7-(1H-pyrazol-5-yl)imidazo[1,5-b]pyridazin-2-yl]-3-methylmorpholine]
< 100 nM	14 nM	C[C@@H]1COCCN1c1cc(C2(C#N)CCOCC2)c2snc(-c3ccn[nH]3)c2n1 [Example 83, (R)-4-(5-(3-methylmorpholino)-3-(1H-pyrazol-5-yl)isothiazolo[4,5-b]pyridin-7-yl)tetrahydro-2H-pyran-4-carbonitrile]
< 100 nM	162 nM	Cc1nnn(C)c1-c1cc(N2CCOC[C@H]2C)nn2c(-c3ccn[nH]3)ncc12 [Example 33, (3R)-4-[4-(dimethyl-1H-1,2,3-triazol-5-yl)-7-(1H-pyrazol-5-yl)imidazo[1,5-b]pyridazin-2-yl]-3-methylmorpholine]
< 100 nM	24.3 nM	C[C@@H]1COCCN1c1cc(N2CCCCS2(=O)=O)c2snc(-c3ccn[nH]3)c2n1 [Example 76, (R)-2-(5-(3-methylmorpholino)-3-(1H-pyrazol-5-yl)isothiazolo[4,5-b]pyridin-7-yl)-1,2-thiazinane 1,1-dioxide]
< 100 nM	67 nM	C[C@@H]1COCCN1c1cc(-c2ccnn2C)c2cnc(-c3ccn[nH]3)n2n1 [Example 27, (R)-3-methyl-4-(4-(1-methyl-1H-pyrazol-5-yl)-7-(1H-pyrazol-5-yl)imidazo[1,5-b]pyridazin-2-yl)morpholine]
< 100 nM	23 nM	Cc1cc(-c2ncc3c(-c4ccnn4C)cc(N4CCOC[C@H]4C)nn23)[nH]n1 [Example 34, (R)-3-methyl-4-(4-(1-methyl-1H-pyrazol-5-yl)-7-(3-methyl-1H-pyrazol-5-yl)imidazo[1,5-b]pyridazin-2-yl)morpholine]
